Results taken from US20240398771A1, “TREATMENT OF SCLERODERMA AND RAYNAUD'S SYNDROME” (Aisa Pharma, Inc., priority 2023, published 2024).

Columns and labels:
Type in all cases: in vivo, human
participants with SSc-RP [1] = experiment: Average duration of weekly RP attacks, all attacks (minutes)
From the text: The relevant metrics measured by this tool daily are: • Study medication • SSc-RP symptoms (Reporting an attack including duration of attack) • Severity of the attack considering all symptoms of the attack e.g. tingling, numbness, pain, color changes (VAS 0-10 cm scale) • Participant's location at the time of the attack (inside home/outside home) • Selecting symptoms experienced during the attack (tingling, numbness, pain, color changes, other) • Pain rating during the attack (11-point Likert scale) • The RCS based on how much difficulty participants had with Raynaud's today, how many attacks the participant had, and how long they lasted. Participants will also be asked to consider how much pain, numbness, or other symptoms the Raynaud's caused in fingers (including painful sores), and how much the Raynaud's alone affected the use of hands today (VAS 0-10 cm scale).
The absolute change in average duration of weekly RP attacks from baseline to the end of each dosing period was and will be a secondary outcome variable. The sponsor-developed participant-informed diary was and will be used to record data. Average duration of weekly RP attacks is defined as the total duration of RP attacks divided by total number of RP attacks within the last 7 days of each dosing period. Total duration of RP attacks during the last 7 days of screening period divided by the total number of RP attacks will be used as baseline for the analysis of all periods. The variable will be calculated similar to frequency data as before.

participants with SSc-RP [2] = experiment: SHAQ Visual Analog Scale - Pain; conditions: Tadalafil 5 mg; Modified ITT, Part A
Procedure: (§1) Results: Patients in the study were administered the Scleroderma Health Assessment Questionnaire (SHAQ) at the time of study entry and during clinic visits following the treatment period. The study is a two-part, parallel arm design, prospective, double-blind, randomized study conducted in Australia (Flinders Medical Center). 27 patients were randomized into the first phase of the study, following which a DSMB meeting was held, which reviewed data on the primary study endpoint and key Raynaud's secondary endpoints. Data on the SHAQ was not available for the DSMB to review. The mITT population, in which any data was available post treatment was 24 patients was the analysis population for this first part of the study. The second part (i.e., part B) of the study will randomize 36 patients in a double blind, randomized, prospective, placebo controlled, crossover study. In the first part (i.e., Part A) of the study for which data is presented, patients were randomized into 6 groups, cilnidipine at two doses (10 and 20 mg) alone and in combination with tadalafil 5 mg, tadalafil 5 mg alone, and placebo. […] The DSMB recommended that the study proceed into its double blind prospective cross overpowered second phase and compare cilnidipine 20 mg alone to placebo. […] Cilnidipine treatment may reduce patient-reported SSc disease disability compared to placebo • b. Cilnidipine treatment may reduce patient-reported SSc disease alternative disability compared to placebo • c. Cilnidipine treatment may reduce patient-reported SSc disease pain* compared to placebo • d. Cilnidipine treatment may reduce patient-reported SSc disease severity compared to placebo • e. Cilnidipine treatment may reduce patient-reported SSc disease skin ulcer severity rating compared to placebo • f Cilnidipine treatment may reduce patient-reported SSc disease breathing difficulty compared to placebo • g. […] SSc disease pain comprises not only pain from Raynaud's but joint pain, headache, odynophagia, back pain, pain from skin ulceration, and neuropathic pain). Table E includes results of the Scleroderma Health Assessment Questionnaire.
Pain on the SHAQ outcome measure on the first line in table F is a composite of all pain experienced in patients with SSc, comprising joint pain, back pain, headache, odynophagia, skin ulcer related discomfort, Raynaud's, and neuropathic pain. Aisa Pharma believes, based on the biologic attributes and actions of cilnidipine that differ from most dihydropyridine calcium channel antagonists that cilnidipine might have direct analgesic effects in certain pain conditions and in fact has been designated to receive evaluation through the NIH-NINDS Preclinical Pain Screening Platform Program to investigate the drug in multiple in vitro and in vivo preclinical models of pain that are validated and predictive of effects in man.

participants with SSc-RP [3] = experiment: SHAQ Visual Analog Scale - Intestinal Problems; conditions: Tadalafil 5 mg; Modified ITT, Part A
Procedure: as §1

[4] = Excluding Outliers, ITT Population - Part A (Table B-6), last 7 days of dosing period
[5] = Excluding Outliers, ITT Population - Part A (Table B-6), last 7 days of screening period
[6] = ITT Population - Part A (Table B-5), last 7 days of dosing period
[7] = ITT Population - Part A (Table B-5), last 7 days of screening period

CN1CC(=O)N2[C@H](c3ccc4c(c3)OCO4)c3[nH]c4ccccc4c3C[C@@H]2C1=O [Tadalafil]
Average Duration of weekly RP attacks (All Attacks), Max (participants with SSc-RP [1]; [4]): 5.9, 5.9 minutes | Average Duration of weekly RP attacks (All Attacks), Min (participants with SSc-RP [1]; [4]): 5.9, 5.9 minutes | Average Duration of weekly RP attacks (All Attacks), Q1 (participants with SSc-RP [1]; [4]): 5.95, 5.95 minutes | Average duration of weekly RP attacks (All Attacks), Change from Baseline, Max (participants with SSc-RP [1]; [4]): −5.0, −5.0 minutes | Average duration of weekly RP attacks (All Attacks), Change from Baseline, Min (participants with SSc-RP [1]; [4]): −5.0, −5.0 minutes | Average duration of weekly RP attacks (All Attacks), Percent Change from Baseline, Max (participants with SSc-RP [1]; [4]): −45.6, −45.6% | Average duration of weekly RP attacks (All Attacks), Percent Change from Baseline, Min (participants with SSc-RP [1]; [4]): −45.6, −45.6% | Average duration of weekly RP attacks (All Attacks), Baseline, Max (participants with SSc-RP [1]; [5]): 10.9, 10.9 minutes | Average duration of weekly RP attacks (All Attacks), Baseline, Min (participants with SSc-RP [1]; [5]): 10.9, 10.9 minutes | Average duration of weekly RP attacks (All Attacks), Baseline, Q1 (participants with SSc-RP [1]; [5]): 10.92, 10.92 minutes | Average duration of weekly RP attacks (All Attacks), Baseline, Q3 (participants with SSc-RP [1]; [5]): 10.92, 10.92 minutes | Average Duration of weekly RP attacks (All Attacks) (participants with SSc-RP [1]; [6]): 5.9 min | Average Duration of weekly RP attacks (All Attacks), Max (participants with SSc-RP [1]; [6]): 818.6 min | Average Duration of weekly RP attacks (All Attacks), Q1 (participants with SSc-RP [1]; [6]): 5.95 min | Average Duration of weekly RP attacks (All Attacks), Q3 (participants with SSc-RP [1]; [6]): 818.57 min | Average duration of weekly RP attacks (All Attacks), Change from Baseline (participants with SSc-RP [1]; [6]): -5.0 min | Average duration of weekly RP attacks (All Attacks), Change from Baseline, Max (participants with SSc-RP [1]; [6]): 188.6 min | Average duration of weekly RP attacks (All Attacks), Change from Baseline, Mean (participants with SSc-RP [1]; [6]): 91.80 min | Average duration of weekly RP attacks (All Attacks), Change from Baseline, Median (participants with SSc-RP [1]; [6]): 91.80 min | Average duration of weekly RP attacks (All Attacks), Change from Baseline, Q3 (participants with SSc-RP [1]; [6]): 188.57 min | Average duration of weekly RP attacks (All Attacks), Percent Change from Baseline, Max (participants with SSc-RP [1]; [6]): 29.9% | Average duration of weekly RP attacks (All Attacks), Percent Change from Baseline, Mean (participants with SSc-RP [1]; [6]): −7.81% | Average duration of weekly RP attacks (All Attacks), Percent Change from Baseline, Median (participants with SSc-RP [1]; [6]): −7.81% | Average duration of weekly RP attacks (All Attacks), Percent Change from Baseline, Min (participants with SSc-RP [1]; [6]): −45.6% | Average duration of weekly RP attacks (All Attacks), Percent Change from Baseline, Q3 (participants with SSc-RP [1]; [6]): 29.93% | Average duration of weekly RP attacks (All Attacks), Baseline (participants with SSc-RP [1]; [7]): 10.9 min | Average duration of weekly RP attacks (All Attacks), Baseline, Max (participants with SSc-RP [1]; [7]): 630.0 min | Average duration of weekly RP attacks (All Attacks), Baseline, Q1 (participants with SSc-RP [1]; [7]): 10.92 min | Average duration of weekly RP attacks (All Attacks), Baseline, Q3 (participants with SSc-RP [1]; [7]): 630.00 min | Visual Analog Scale-Pain, Baseline, Mean (participants with SSc-RP [2]): 3.167 | Visual Analog Scale-Pain, Baseline, Median (participants with SSc-RP [2]): 2.900 | Visual Analog Scale-Pain, Change from Baseline, Mean (participants with SSc-RP [2]): −0.300 | Visual Analog Scale-Pain, Change from Baseline, Median (participants with SSc-RP [2]): −0.100 | Visual Analog Scale-Pain, In Clinic Visit (Day 12), Mean (participants with SSc-RP [2]): 2.700 | Visual Analog Scale-Pain, In Clinic Visit (Day 12), Median (participants with SSc-RP [2]): 2.150 | Visual Analog Scale-Pain, Percent Change from Baseline, Mean (participants with SSc-RP [2]): −14.24% | Visual Analog Scale-Pain, Percent Change from Baseline, Median (participants with SSc-RP [2]): −4.55% | Visual Analog Scale-Intestinal Problems, Baseline, Mean (participants with SSc-RP [3]): 0.925 | Visual Analog Scale-Intestinal Problems, Baseline, Median (participants with SSc-RP [3]): 0.950 | Visual Analog Scale-Intestinal Problems, Change from Baseline, Mean (participants with SSc-RP [3]): −0.250 | Visual Analog Scale-Intestinal Problems, Change from Baseline, Median (participants with SSc-RP [3]): −0.150 | Visual Analog Scale-Intestinal Problems, In Clinic Visit (Day 12), Mean (participants with SSc-RP [3]): 1.175 | Visual Analog Scale-Intestinal Problems, In Clinic Visit (Day 12), Median (participants with SSc-RP [3]): 0.100 | Visual Analog Scale-Intestinal Problems, Percent Change from Baseline, Mean (participants with SSc-RP [3]): −2.55% | Visual Analog Scale-Intestinal Problems, Percent Change from Baseline, Median (participants with SSc-RP [3]): −88.89%
